From PMC11945486, “TAS1R2/TAS1R3 Single-Nucleotide Polymorphisms Affect Sweet Taste Receptor Activation by Sweeteners: The SWEET Project” (Nutrients, 2025)
No end group written: not given here.

Molecular target: T1, mTAS1R2-WT/mTAS1R3-WT (Mus musculus, UniProt Q925D8+Q925I4)
T1 construct: expressed in transfected cells; host or cells: HEK293T-Gα16gust44
T1 sequence (Q925I4 20-843): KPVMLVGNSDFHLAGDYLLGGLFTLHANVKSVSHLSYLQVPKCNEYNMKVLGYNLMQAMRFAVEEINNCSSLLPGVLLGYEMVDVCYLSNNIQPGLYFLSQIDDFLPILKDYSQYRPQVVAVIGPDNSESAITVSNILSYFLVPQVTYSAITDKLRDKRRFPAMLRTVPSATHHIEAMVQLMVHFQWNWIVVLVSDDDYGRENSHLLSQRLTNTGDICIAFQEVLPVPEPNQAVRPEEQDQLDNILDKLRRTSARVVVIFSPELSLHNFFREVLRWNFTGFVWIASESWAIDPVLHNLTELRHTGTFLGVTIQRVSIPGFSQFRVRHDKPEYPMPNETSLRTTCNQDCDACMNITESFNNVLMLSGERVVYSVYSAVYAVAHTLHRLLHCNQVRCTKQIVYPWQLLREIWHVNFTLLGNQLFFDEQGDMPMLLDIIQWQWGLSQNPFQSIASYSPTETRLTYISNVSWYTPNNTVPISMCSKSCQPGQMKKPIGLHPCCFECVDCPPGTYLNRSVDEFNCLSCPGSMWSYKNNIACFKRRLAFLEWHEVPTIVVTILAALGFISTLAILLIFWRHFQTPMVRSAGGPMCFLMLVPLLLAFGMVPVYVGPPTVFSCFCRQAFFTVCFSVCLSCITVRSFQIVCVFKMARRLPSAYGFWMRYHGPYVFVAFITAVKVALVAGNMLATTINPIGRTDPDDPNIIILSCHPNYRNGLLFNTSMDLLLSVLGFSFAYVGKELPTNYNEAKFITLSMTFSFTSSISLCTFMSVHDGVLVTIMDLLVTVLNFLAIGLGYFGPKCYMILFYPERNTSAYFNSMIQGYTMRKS
T1 sequence (Q925D8 21-858): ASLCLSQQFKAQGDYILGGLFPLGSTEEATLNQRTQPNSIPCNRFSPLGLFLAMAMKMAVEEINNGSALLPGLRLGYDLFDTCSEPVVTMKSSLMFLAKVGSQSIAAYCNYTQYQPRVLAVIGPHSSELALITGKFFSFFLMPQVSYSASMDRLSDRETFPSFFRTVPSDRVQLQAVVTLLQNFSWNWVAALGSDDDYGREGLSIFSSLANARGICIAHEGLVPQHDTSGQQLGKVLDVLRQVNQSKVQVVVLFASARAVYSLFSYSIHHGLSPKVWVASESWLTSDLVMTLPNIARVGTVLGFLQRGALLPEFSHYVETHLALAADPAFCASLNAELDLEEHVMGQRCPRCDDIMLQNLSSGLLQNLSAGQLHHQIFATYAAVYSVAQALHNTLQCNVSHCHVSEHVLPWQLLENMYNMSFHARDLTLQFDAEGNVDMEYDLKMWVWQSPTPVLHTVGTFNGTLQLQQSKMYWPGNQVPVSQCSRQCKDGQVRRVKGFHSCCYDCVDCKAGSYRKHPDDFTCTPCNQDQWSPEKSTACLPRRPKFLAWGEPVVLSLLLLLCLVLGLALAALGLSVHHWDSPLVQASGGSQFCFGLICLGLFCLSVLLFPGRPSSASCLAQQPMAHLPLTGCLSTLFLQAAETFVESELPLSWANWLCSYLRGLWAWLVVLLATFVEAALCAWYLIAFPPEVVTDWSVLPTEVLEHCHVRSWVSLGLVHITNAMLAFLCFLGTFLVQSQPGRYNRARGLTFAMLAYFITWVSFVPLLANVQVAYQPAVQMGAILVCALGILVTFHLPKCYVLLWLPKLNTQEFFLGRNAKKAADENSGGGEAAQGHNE
Assay: Calcium mobilisation assay, HEK293T-Gα16gust44 cells, mouse sweet taste receptor WT
Assay type: cell-based
Settings: for EC50 / Max ΔF/F0: mTAS1R2-WT + mTAS1R3-WT, "-": no activation; for Max ΔF/F0: maximal signal amplitude; for activation of the mouse sweet taste receptor: result in words
Procedure: The HEK293T cells were kindly provided by Jay P. Slack (Givaudan Flavors Corporation; Cincinnati, OH, USA). HEK293T cells stably transfected with Gα16gust44 [43, 67] were seeded in poly-D-lysine-coated clear-bottom black 96-well plates (0.35 × 10^5 cells/well) in high-glucose DMEM supplemented with 2 mM GlutaMAX, 10% dialysed foetal bovine serum with penicillin/streptomycin and G418 (400 μg/mL) at 37 °C and 6.3% CO2 in a humidified atmosphere as previously reported. […] As a negative control, HEK293T cells were mock-transfected with the empty expression vector. After a further 24 h of incubation, the HEK293T cells were washed with C1 buffer (130 mM NaCl, 5 mM KCl, 10 mM HEPES pH 7.4 and 2 mM CaCl2). The 96-well plates containing the cells were then stimulated with sweet-tasting compounds. […] Different concentration ranges were tested depending on the sweet compound injected. The Ca^2+ changes were expressed as fractional changes in fluorescent light intensity: ΔF/F = (F − F0)/F0, where F was the fluorescent light intensity at each point, and F0 was the value of emitted fluorescent light prior to stimulus application. To calculate dose–response relationships, the changes in fluorescence upon stimulus application were averaged, mock-subtracted and baseline-corrected. The dose–response data obtained were adjusted using a 4-parameter logistic equation. The half-maximal effective concentrations (EC50 values) and maximal signal amplitudes were calculated using SigmaPlot software (version 15.0) (Systat Software; San Jose, CA, USA).
HEK293T-Gα16gust44 cells were transiently cotransfected with pcDNA6-MAX-mTAS1R2-FLAG, pcDNA4-MAX-mTAS1R3-WT-FLAG or pcDNA4-MAX-mTAS1R3-I60T-FLAG, and pCMV-GCaMP5G as previously described in detail. After 24 h, the cells were washed with C1 buffer and stimulated with a logarithmically increasing range of sweetener concentrations. Calcium responses during automated application were monitored using a FlexStation®3 Multi-Mode microplate reader. The dose–response curves, EC50 values and maximal signal amplitudes were calculated as previously described.
For in vitro calcium mobilisation assay performed on hTAS1R2-SNPs, hTAS1R3-SNPs and mTAS1R3-I60T, 6 to 7 concentrations were tested for each sweet compound, plus buffer alone. All concentration–receptor combinations were measured in duplicate, and each experiment was repeated at least 4 times (8 wells/concentration). Results were expressed for each concentration as ΔF/F mean ± SEM and represented as dose–response curves.

| Compound | EC50 [µM] | Max ΔF/F0 | activation of the mouse sweet taste receptor |
| --- | --- | --- | --- |
| CC1=CC(=O)NS(=O)(=O)O1 [Acesulfame K, acesulfame K] | 439 ± 10 | 1.63 ± 0.02 |  |
| O=S(=O)(O)NC1CCCCC1 [Cyclamate, cyclamate] |  |  | not activated |
| C[C@H](CC[C@@H](O[C@@H]1O[C@H](CO[C@@H]2O[C@H](CO)[C@@H](O)[C@H](O)[C@H]2O)[C@@H](O)[C@H](O)[C@H]1O[C@@H]1O[C@H](CO)[C@@H](O)[C@H](O)[C@H]1O)C(C)(C)O)[C@H]1CC[C@@]2(C)[C@@H]3CC=C4[C@@H](CC[C@H](O[C@@H]5O[C@H](CO[C@@H]6O[C@H](CO)[C@@H](O)[C@H](O)[C@H]6O)[C@@H](O)[C@H](O)[C@H]5O)C4(C)C)[C@]3(C)[C@H](O)C[C@]12C [Mogroside V, mogroside V] | 133 ± 6 | 0.84 ± 0.02 |  |
| COc1ccc(CCC(=O)c2c(O)cc(O[C@@H]3O[C@H](CO)[C@@H](O)[C@H](O)[C@H]3O[C@@H]3O[C@@H](C)[C@H](O)[C@@H](O)[C@H]3O)cc2O)cc1O [NHDC, neohesperidin dihydrochalcone] |  |  | not activated |

The remaining lines, values ahead:

| EC50 [µM] | Max ΔF/F0 | activation of the mouse sweet taste receptor | Compound |
| --- | --- | --- | --- |
|  |  | not activated | COC(=O)[C@H](Cc1ccccc1)NC(=O)[C@H](CC(=O)O)NCCC(C)(C)C [Neotame] |
|  |  | not activated | C=C(C)[C@@H]1CC=C(/C=N/O)CC1 [Perillartine, perillartine] |
| 44 ± 4 | 1.41 ± 0.05 |  | C=C1C[C@@]23CC[C@H]4[C@@](C)(CCC[C@@]4(C)C(=O)O[C@@H]4O[C@H](CO)[C@@H](O)[C@H](O[C@@H]5O[C@H](CO)[C@@H](O)[C@H](O)[C@H]5O)[C@H]4O[C@@H]4O[C@H](CO)[C@@H](O)[C@H](O)[C@H]4O)[C@@H]2CC[C@]1(O[C@@H]1O[C@H](CO)[C@@H](O)[C@H](O[C@@H]2O[C@H](CO)[C@@H](O)[C@H](O)[C@H]2O)[C@H]1O[C@@H]1O[C@H](CO)[C@@H](O)[C@H](O)[C@H]1O)C3 [Rebaudioside M, rebaudioside M] |
| 778 ± 22 | 2.03 ± 0.02 |  | OC[C@H]1O[C@H](O[C@]2(CCl)O[C@H](CCl)[C@@H](O)[C@@H]2O)[C@H](O)[C@@H](O)[C@H]1Cl [Sucralose] |
|  |  | not activated | brazzein (QDKCKKVYENYPVSKCQLANQCNYDCKLDKHARSGECFYDEKRNLQCICDYCEY; ends and bridges not checked; cysteine pairing not given here; UniProt P56552 1-54, looked up) [sweet-tasting protein obtained by recombinant production using the yeast Pichia pastoris] |
|  |  | not activated | thaumatin |
